# Reference: patent US8084430B2, “ENT-kaurene diterpene compound and its derivatives, their preparation and their use” (Zhengzhou University, priority 2006, dated 2011)
# Entries after “also recorded” stand apart in the source; their conditions may differ.
# How the values were obtained:
# [1] = test system: Human esophageal carcinoma Ec109 cells; assay: MTT activity against esophageal carcinoma Ec109 cells; format: cell-based
# Procedure: Human esophageal carcinoma Ec109 cells were taken as target cells (Henan Institute of Medical Sciences), which were cultured in RPMI1640 medium (GIBCO) with 10% fetal bovine serum (TBD) at 37° C., in 5% CO2. The cells in logarithmic growth phase were inoculated in a 96-well plate, each well containing 6×10^3 cells. After 24 hours culture, the Jiyuan oridonin A (the compound obtained in example 1), derivative 1 and derivative 2 in different concentrations were added. After continuous 48 hours culture, the medical solution was removed carefully by absorption, followed by washing with RPMI 1640 medium without fetal bovine serum 3 times. 200 μL of medium with 0.2 mg/mL MTT were added in each well and incubated at 37° C. for 4 hours. The supernatant was removed and 200 μL of DMSO was added. After 10 min of shaking, the colorimetric method was used to determine the OD value of the control group and sample groups by an enzyme-labeling instrument with a detection wavelength of 570 nm, and a reference wavelength of 450 nm. The inhibition rate against cells of drugs in different concentrations was calculated and hemi-inhibitory concentration IC50 (μg/mL) was calculated based on cell inhibition curve.
# [2] = test system: α-glucosidase; assay: Inhibitory activity against glycosidase (α-glucosidase); format: biochemical, baker's yeast
# Procedure: (§1) After keeping at 37° C. for 40 min, the reaction substrate, p-nitrophenyl glucoside (2.5 mM, 20 μl), was added in each well, and kept at 37° C. for 5 min. The reaction was terminated by addition of buffer, 0.1 M Na2CO3 100 μl, and the OD value was determined at 405 nm by colorimetric method. 0.067M phosphate buffer containing 10% DMSO was used instead of the compounds in negative control group. Inhibition rate=(1−OD value of experimental group/OD value of negative control group)×100%, the IC50 value was calculated by drawing.
# [3] = test system: β-glucosidase; assay: Inhibitory activity against glycosidase (β-glucosidase); format: biochemical, baker's yeast
# Procedure: as §1
smiles,measurement,setting,value
C=C1C(=O)C23C([C@@H](O)CC1[C@H]2O)[C@]12CCCC(C)(C)C1C[C@H]3OC2O (stereo partly drawn) [Jiyuan oridonin A],cytotoxic activity against Ec109 cell (conclusion in words),[1]; Ec109 cell,higher cytotoxic activity; also recorded: highest activity
same,IC50,"[1]; Homo sapiens, ECa-109, Ec109 cells, 48 hours culture, MTT",4.52 µg/mL
same,Inhibitory activity against α-glucosidase,[2]; compound concentration of 1 mM,26.3
same,inhibitory activity against α-glucosidase in vitro (conclusion in words),[2]; in vitro,certain inhibitory activity
same,Inhibitory activity against β-glucosidase,[3]; compound concentration of 1 mM,25.0
same,inhibitory activity against β-glucosidase in vitro (conclusion in words),[3]; in vitro,certain inhibitory activity
